Several values for one entry are separate records, joined by “and”; a condition that tells them apart may be missing. Equal values may be shown once.
How the values were obtained:
Conditions in all cases: incubation time: 72 h
[1] = system: HCC1599; assay: normalised viability (% of control), CellTiter-Blue; higher = more viable cells (about 100 = DMSO control)
Method in brief: (§1)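 Seeded at 20 µl suspension per well onto compound-loaded 384-well plates, breast cancer cell lines were incubated 72 h. CellTiter-Blue fluorescence at 560/590 nm was then read, with each plate normalised to vehicle (100) and a positive kill control (0). Normalised viability is reported at a single listed concentration of the series.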

[2] = system: MDA-MB-453; assay: as above
Method in brief: as §1

[3] = system: MFM-223; assay: drug sensitivity score (DSS), CellTiter-Blue viability (DSS (AUC-based score)); higher = stronger viability inhibition; extreme values may be limits of the assay
Description: (§2)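 DSRT with the CellTiter-Blue (resazurin reduction) viability readout, fluorescence 560/590 nm, 72 h incubation. Plates were normalised to DMSO and benzethonium chloride controls. DSS is computed from the area under the fitted dose-response curve (5 or 9 concentrations).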

[4] = system: CAL-120; assay: as above
Description: as §2

[5] = system: MDA-MB-231; assay: as above
Description: as §2

[6] = system: Hs578T; assay: as above
Description: as §2

[7] = system: BT-474; assay: as above
Description: as §2

[8] = system: HCC1937; assay: as above
Description: as §2

[9] = system: MDA-MB-436; assay: as above
Description: as §2

[10] = system: HCC1143; assay: as above
Description: as §2

[11] = system: DU-4475; assay: as above
Description: as §2

[12] = system: CAL-85-1; assay: as above
Description: as §2

[13] = system: CAL-51; assay: as above
Description: as §2

[14] = system: BT-549; assay: as above
Description: as §2

[15] = system: CAL-148; assay: as above
Description: as §2

[16] = system: HCC1599; assay: as above
Description: as §2

[17] = system: HDQ-P1; assay: as above
Description: as §2

[18] = system: SK-BR-3; assay: as above
Description: as §2

[19] = system: MDA-MB-453; assay: as above
Description: as §2

[20] = system: MDA-MB-468; assay: as above
Description: as §2

| SMILES | normalised viability ([1]; 10 nM) | normalised viability ([1]; 1000 nM) [%] | normalised viability ([1]; 10000 nM) | normalised viability ([2]; 3 nM) | normalised viability ([2]; 30 nM) | normalised viability ([2]; 100 nM) | drug sensitivity score [3] | drug sensitivity score [4] | drug sensitivity score [5] | drug sensitivity score [6] | drug sensitivity score [7] | drug sensitivity score [8] | drug sensitivity score [9] | drug sensitivity score [10] | drug sensitivity score [11] | drug sensitivity score [12] | drug sensitivity score [13] | drug sensitivity score [14] | drug sensitivity score [15] | drug sensitivity score [16] | drug sensitivity score [17] | drug sensitivity score [18] | drug sensitivity score [19] | drug sensitivity score [20] | normalised viability ([1]; 1 nM) [%] | normalised viability ([1]; 100 nM) [%] | normalised viability ([2]; 0.3 nM) [%] | normalised viability ([2]; 10 nM) [%] | normalised viability ([1]; 100000 nM) [%] | normalised viability ([2]; 300 nM) [%] | normalised viability ([2]; 1000 nM) [%] |
| --- | --- | --- | --- | --- | --- | --- | --- | --- | --- | --- | --- | --- | --- | --- | --- | --- | --- | --- | --- | --- | --- | --- | --- | --- | --- | --- | --- | --- | --- | --- | --- |
| Cc1c(C(=O)Nc2ccc(N3C[C@@H](C)O[C@@H](C)C3)nc2)cccc1-c1ccc(OC(F)(F)F)cc1 [NVP-LDE225] | 105% | 90.5 | 102% | 98.9% | 88.7% | 105% | 0 | 0 | 0 | 0 | 0 | 0 | 0 | 0 | 0 | 0 | 0 | 0 | 0 | 0 | 0 | 0 | 0 | 0 |  |  |  |  |  |  |  |
| Nc1nc(Cl)nc2c1ncn2[C@@H]1O[C@H](CO)[C@@H](O)[C@@H]1F [Clofarabine] | 106% | 87.5 | 71.6% | 102% | 105% | 97.9% | 0 | 11.6 | 12 | 7.51 | 0 | 15.5 | 11.8 | 9.25 | 13.3 | 10.1 | 11.1 | 10.6 | 11.3 | 2.01 | 0 | 15.3 | 9.02 | 12.5 |  |  |  |  |  |  |  |
| CC(C)C(=O)Nc1ccc([N+](=O)[O-])c(C(F)(F)F)c1 [Flutamide] | 105% | 114 | 118% | 123% | 94.8% | 107% | 0 | 0 | 0 | 0 | 0 | 0 | 0 | 0 | 0 | 0 | 0 | 0 | 0 | 0 | 0 | 0 | 0 | 0 |  |  |  |  |  |  |  |
| NC(=O)c1cccc2cn(-c3ccc([C@@H]4CCCNC4)cc3)nc12 [MK-4827] | 93.4% | 116 | 93.3% | 116% | 90.8% | 93.3% | 0 | 0 | 0 | 0 | 0 | 8.54 | 0 | 3.49 | 6.73 | 0 | 5.3 | 0 | 2.86 | 0 | 0 | 0 | 0 | 0 |  |  |  |  |  |  |  |
| O=C(c1cc(Cc2n[nH]c(=O)c3ccccc23)ccc1F)N1CCN(C(=O)C2CC2)CC1 [Olaparib] | 93.8% | 114 | 94.2% | 109% | 92.3% | 100% | 0 | 0 | 0 | 0 | 0 | 11.2 | 0 | 0 | 3.83 | 0 | 3.33 | 0 | 0 | 0 | 0 | 0.543 | 0 | 2.78 |  |  |  |  |  |  |  |
| Cc1cc2c(F)c(Oc3ncnn4cc(OC[C@@H](C)O)c(C)c34)ccc2[nH]1 [Brivanib] |  | 116 |  | 110% |  |  | 0 | 0 | 0 | 0 | 0 | 0 | 0 | 0 | 0 | 0 | 0 | 0 | 0 | 0 | 0 | 0 | 0 | 0 | 87.1 | 100 | 99.6 | 101 |  |  |  |
| CC(C)C[C@H](NC(=O)[C@H](CCc1ccccc1)NC(=O)CN1CCOCC1)C(=O)N[C@@H](Cc1ccccc1)C(=O)N[C@@H](CC(C)C)C(=O)[C@@]1(C)CO1 [Carfilzomib] |  | 38.9 |  | 38.5% |  |  | 26.4 | 23.9 | 25.5 | 27.6 | 16.1 | 27 | 20.5 | 20.4 | 22.8 | 22.2 | 19.6 | 29.2 | 18.8 | 7.66 | 23.7 | 23.7 | 27.8 | 26.8 | 106 | 64.6 | 115 | 17.7 |  |  |  |
| CO[C@H]1C[C@@H]2CC[C@@H](C)[C@@](O)(O2)C(=O)C(=O)N2CCCC[C@H]2C(=O)O[C@H]([C@H](C)C[C@@H]2CC[C@@H](O)[C@H](OC)C2)CC(=O)[C@H](C)/C=C(\C)[C@@H](O)[C@@H](OC)C(=O)[C@H](C)C[C@H](C)/C=C/C=C/C=C/1C [Sirolimus] |  | 75.3 |  | 34.2% |  |  | 21.3 | 17.3 | 0 | 14.4 | 0 | 20.4 | 0 | 10.1 | 15 | 17 | 23.8 | 20.8 | 19.8 | 9.43 | 13.2 | 15.4 | 27.8 | 14.2 | 88.4 | 56.7 | 86.1 | 32.2 |  |  |  |
| O=C(O)CC[C@H]1CC[C@@](c2cc(F)ccc2F)(S(=O)(=O)c2ccc(Cl)cc2)CC1 [MK-0752] |  | 74.7 |  | 107% |  |  | 0 | 0 | 0 | 0 | 0 | 0 | 0 | 0 | 0 | 0 | 0 | 0 | 0 | 2.93 | 0 | 0 | 0 | 0 | 98.2 | 81.8 | 113 | 125 |  |  |  |
| Cn1nnc2c(C(N)=O)ncn2c1=O [Temozolomide] | 103% | 89.8 | 117% | 112% | 108% | 100% | 0 | 0 | 0 | 0 | 0 | 0 | 0 | 0 | 0 | 0 | 0 | 2.1 | 0 | 0 | 1.58 | 0 | 0 | 0 |  |  |  |  |  |  |  |
| CC[C@@H]1C(=O)N(C)c2cnc(Nc3ccc(C(=O)N[C@H]4CC[C@H](N5CCN(CC6CC6)CC5)CC4)cc3OC)nc2N1C(C)C [Volasertib] |  | 74 |  | 89.9% |  |  | 16.9 | 20.5 | 12.3 | 11.3 | 8.65 | 16.3 | 3.18 | 13.4 | 14.7 | 10.9 | 17.6 | 12.3 | 17.8 | 0 | 5.17 | 19.8 | 19.2 | 11.9 | 94.6 | 86.2 | 117 | 46.2 |  |  |  |
| COc1cc2c(N3CCN(C(=O)Nc4ccc(OC(C)C)cc4)CC3)ncnc2cc1OCCCN1CCCCC1 [Tandutinib] |  | 103 |  | 94.9% |  |  | 0 | 0 | 0 | 0 | 0 | 0 | 0 | 0 | 0 | 0 | 0 | 0 | 0.668 | 0 | 0 | 0 | 0 | 0 | 99.1 | 121 | 117 | 96.9 |  |  |  |
| NC(=O)NO [Hydroxyurea] |  |  | 87.4% |  | 124% |  | 0 | 0 | 0 | 0 | 0 | 2.94 | 0 | 0 | 0 | 0 | 0 | 0 | 0 | 0 | 0 | 0 | 0 | 0 |  | 107 |  |  | 95.9 | 102 | 116 |
| C[C@@H](C(=O)O)c1ccc(-c2ccccc2)c(F)c1 [Tarenflurbil] | 94.6% | 118 | 106% | 106% | 89.2% | 85.6% | 0 | 0 | 0 | 0 | 0 | 0 | 0 | 0 | 0 | 0 | 0 | 0 | 0 | 0 | 0 | 0 | 1.49 | 0 |  |  |  |  |  |  |  |
| CCCCCOC(=O)Nc1nc(=O)n([C@@H]2O[C@H](C)[C@@H](O)[C@H]2O)cc1F [Capecitabine] | 99.6% and 100% |  | 96.4% and 111% | 110% and 101% | 95.9% and 104% | 97% and 94% | 0 | 0 | 0 | 0 | 0 | 0 | 0 | 0 | 0 | 0 | 0 | 0 | 0 | 0 | 0 |  |  | 0 |  |  |  |  |  |  |  |

From the supplement of paper PMC4862054
